Literature values as cited in patent US20090054493A1, “THIAZOLE DERIVATIVES AS PPAR DELTA LIGANDS AND THEIR MANUFACTURING PROCESS” (priority 2005, published 2009).

Experiments:
[1] = molecular target: T1, PPARγ (Mus musculus, UniProt P37238); conditions: test on rodents, background art; cited from earlier work
T1 sequence (P37238 1-505): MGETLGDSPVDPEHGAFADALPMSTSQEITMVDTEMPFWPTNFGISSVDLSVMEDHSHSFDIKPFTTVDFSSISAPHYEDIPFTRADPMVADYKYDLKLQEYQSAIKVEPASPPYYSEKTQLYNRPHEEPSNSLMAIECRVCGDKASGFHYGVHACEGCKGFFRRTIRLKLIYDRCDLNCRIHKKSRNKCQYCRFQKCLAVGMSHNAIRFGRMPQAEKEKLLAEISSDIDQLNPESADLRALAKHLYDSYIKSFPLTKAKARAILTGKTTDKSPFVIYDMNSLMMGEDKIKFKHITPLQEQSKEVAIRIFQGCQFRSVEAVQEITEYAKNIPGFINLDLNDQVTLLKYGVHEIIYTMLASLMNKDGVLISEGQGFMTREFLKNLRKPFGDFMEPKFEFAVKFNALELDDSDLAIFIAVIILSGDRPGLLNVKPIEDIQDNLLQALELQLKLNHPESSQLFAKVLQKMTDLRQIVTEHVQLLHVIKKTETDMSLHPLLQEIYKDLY

[2] = molecular target: T2, PPARδ (Homo sapiens, UniProt Q03181); conditions: background art, cited from earlier work
T2 sequence (Q03181 1-441): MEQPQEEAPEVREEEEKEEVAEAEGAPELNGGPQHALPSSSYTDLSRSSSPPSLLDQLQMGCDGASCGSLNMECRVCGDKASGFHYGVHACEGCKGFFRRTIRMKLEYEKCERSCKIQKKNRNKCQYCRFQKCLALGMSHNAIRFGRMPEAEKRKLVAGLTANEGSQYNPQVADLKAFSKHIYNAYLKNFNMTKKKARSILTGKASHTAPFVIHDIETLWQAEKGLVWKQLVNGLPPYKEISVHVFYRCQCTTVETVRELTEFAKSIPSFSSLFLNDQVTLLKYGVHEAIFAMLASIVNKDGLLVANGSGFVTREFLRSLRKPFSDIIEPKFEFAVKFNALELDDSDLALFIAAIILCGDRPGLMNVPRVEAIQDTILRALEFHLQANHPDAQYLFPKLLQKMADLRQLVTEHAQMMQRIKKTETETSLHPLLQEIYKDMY

In the case of `CCCc1c(OCCCOc2ccc(OCC(=O)O)cc2)ccc(C(C)=O)c1O` [Example L-165041], the “selectivity for PPARγ” value [1] is listed as “almost no selectivity”, the “selectivity for hPPARδ than PPARα and PPARγ” value [2] is listed as 10 fold and the EC50 ([2]; hPPARδ) is listed as 0.53 µM.
